{
  "source": "patent EP0597029B1",
  "about": "“W/O MICROEMULSIONS” (SMITHKLINE BEECHAM CORPORATION, priority 1991, dated 1993)",
  "key": {"[1]": {"test": "Viscosity of microemulsions", "assay_type": "physicochemical", "conditions": "aqueous phase = water; oil plus low HLB surfactant (3:1, 87%), high HLB surfactant (10%), aqueous (3%)", "from_the_text": "(§1) All the microemulsions had oil plus low HLB surfactant (3:1, 87%), high HLB surfactant (10%) and aqueous (3%)."}, "[2]": {"test": "Refractive index of microemulsions", "assay_type": "physicochemical", "conditions": "aqueous phase = water; oil plus low HLB surfactant (3:1, 87%), high HLB surfactant (10%), aqueous (3%)", "from_the_text": "as §1"}, "[3]": {"conditions": "value in parentheses, from the CRC Handbook of Chemistry and Physics, 60th Edition; cited from earlier work"}, "[4]": {"conditions": "value in parentheses, from the CRC Handbook of Chemistry and Physics, 60th Edition; cited from earlier work", "remark": "listed apart in the source"}},
  "note": "Read-outs that look alike come from different tables or passages of the source.",
  "data": [
    {"smiles": "CCCCCCCC/C=C\\CCCCCCCC(=O)O", "note": "[Oleic Acid]", "values": [
      {"measurement": "Viscosity", "setting": "[1]", "value": 23.4, "unit": "centiPoise"},
      {"measurement": "Refractive index", "setting": "[2]", "value": 1.4582},
      {"measurement": "Viscosity", "setting": "[3]", "value": 25.6, "unit": "centiPoise"},
      {"measurement": "Refractive index", "setting": "[4]", "value": 1.4583}
    ]}
  ]
}
